Measurements as given in patent US8530493B2, “Indolopyridines as Eg5 kinesin modulators” (4SC AG, priority 2006, dated 2013).

What follows are compounds tested on RKO p21 uninduced (proliferating) colon adenocarcinoma cells (assay: Alamar Blue cell viability assay, RKO p21 uninduced (proliferating)). Conditions: Homo sapiens, Table B3, anti-proliferative/cytotoxic activity, 72 hours, read-out: −log EC50 RKO p21 uninduced (proliferating) (converted).
Format: cell-based
Method in brief: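 RKO p21 or p27 subclones grown without Ponasterone A, i.e. proliferating, exposed 24 h after seeding to semi-log compound dilutions in DMEM/10% FCS (1% DMSO controls) for 72 h at 37° C. Alamar Blue fluorescence (544/590 nm) read relative to untreated cells; EC50 from dose-response curves, given as −log EC50 (mol/l).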
Compound `COc1cc2c3c([nH]c2cc1F)[C@@H](c1cccc(O)c1)N1C(=O)N(CCN2CCN(C)CC2)C(=O)[C@]1(C)C3` (racemic) [Example 266, (3aSR,10RS)-7-Fluoro-10-(3-hydroxy-phenyl)-6-methoxy-3a-methyl-2-[2-(4-methyl-piperazin-1-yl)-ethyl]-3a,4,9,10-tetrahydro-2,9,10a-triaza-cyclopenta[b]fluorene-1,3-dione] has an EC50 of 39.8 to 251 nM.
For `C[C@@]12Cc3c([nH]c4ccc(Cl)cc34)[C@@H](c3cccc(O)c3)N1C(=O)N(CCCN1CCCCC1)C2=O` (racemic) [Example 181, (3aSR,10RS)-6-Chloro-10-(3-hydroxy-phenyl)-3a-methyl-2-(3-piperidin-1-yl-propyl)-3a,4,9,10-tetrahydro-2,9,10a-triaza-cyclopenta[b]fluorene-1,3-dione], the EC50 was at most 39.8 nM.
In the case of `CN(C)CCCN1C(=O)N2[C@H](c3cccc(O)c3)c3[nH]c4ccc(Br)cc4c3C[C@@]2(C)C1=O` (racemic) [Example 230, (3aSR,10RS)-6-Bromo-2-(3-dimethylamino-propyl)-10-(3-hydroyx-phenyl)-3a-methyl-3a,4,9,10-tetrahydro-2,9,10a-triaza-cyclopenta[b]fluorene-1,3-dione], the EC50 is reported as at most 39.8 nM.
Work on `C=CCN(C)CCN1C(=O)N2[C@H](c3cccc(O)c3)c3[nH]c4cc(F)c(OC)cc4c3C[C@@]2(C)C1=O` (racemic) [Example 452, (3aSR,10RS)-2-[2-(Allyl-methyl-amino)-ethyl]-7-fluoro-10-(3-hydroxy-phenyl)-6-methoxy-3a-methyl-3a,4,9,10-tetrahydro-2,9,10a-triaza-cyclopenta[b]fluorene-1,3-dione] yielded an EC50 of 39.8 to 251 nM.
Compound `CCOc1ccc2[nH]c3c(c2c1)C[C@@]1(C)C(=O)N(CCCN2CCCC2)C(=O)N1[C@@H]3c1cccc(O)c1` (racemic) [Example 221, (3aSR,10RS)-6-Ethoxy-10-(3-hydroxy-phenyl)-3a-methyl-2-(3-pyrrolidin-1-yl-propyl)-3a,4,9,10-tetrahydro-2,9,10a-triaza-cyclopenta[b]fluorene-1,3-dione] has an EC50 of 39.8 to 251 nM.
`CCOc1ccc2[nH]c3c(c2c1)C[C@@]1(C)C(=O)N(CCNCC(C)C)C(=O)N1[C@@H]3c1cccc(O)c1` (racemic) [Example 153, (3aSR,10RS)-6-Ethoxy-10-(3-hydroxy-phenyl)-2-(2-isobutylamino-ethyl)-3a-methyl-3a,4,9,10-tetrahydro-2,9,10a-triaza-cyclopenta[b]fluorene-1,3-dione] was tested, and the EC50 was at most 39.8 nM.
`CC1CCN(CCCN2C(=O)N3[C@H](c4cccc(O)c4)c4[nH]c5ccc(OC(F)F)cc5c4C[C@@]3(C)C2=O)CC1` (racemic) [Example 244, (3aSR,10RS)-6-(1,1-Difluoro-methoxy)-10-(3-hydroxy-phenyl)-3a-methyl-2-[3-(4-methyl-piperidin-1-yl)-propyl]-3a,4,9,10-tetrahydro-2,9,10a-triaza-cyclopenta[b]fluorene-1,3-dione] showed an EC50 of 39.8 to 251 nM.
Work on `CN(CCO)CCCN1C(=O)N2[C@H](c3cccc(O)c3)c3[nH]c4cc(F)c(Cl)cc4c3C[C@@]2(C)C1=O` (racemic) [Example 468, (3aSR,10RS)-6-Chloro-7-fluoro-2-{3-[(2-hydroxy-ethyl)-methyl-amino]-propyl}-10-(3-hydroxy-phenyl)-3a-methyl-3a,4,9,10-tetrahydro-2,9,10a-triaza-cyclopenta[b]fluorene-1,3-dione] yielded an EC50 of at most 39.8 nM.
Compound `CC(=O)N1CCN(CCN2C(=O)N3[C@H](c4cccc(O)c4)c4[nH]c5ccc(OC(F)F)cc5c4C[C@@]3(C)C2=O)CC1` (racemic) [Example 295, (3aSR,10RS)-2-[2-(4-Acetyl-piperazin-1-yl)-ethyl]-6-(1,1-difluoro-methoxy)-10-(3-hydroxy-phenyl)-3a-methyl-3a,4,9,10-tetrahydro-2,9,10a-triaza-cyclopenta[b]fluorene-1,3-dione] has an EC50 of 39.8 to 251 nM.
In the case of `C#CCN(C)CCCN1C(=O)N2[C@H](c3cccc(O)c3)c3[nH]c4ccc(Cl)cc4c3C[C@@]2(C)C1=O` (racemic) [Example 170, (3aSR,10RS)-6-Chloro-10-(3-hydroxy-phenyl)-3a-methyl-2-[3-(methyl-prop-2-ynyl-amino)-propyl]-3a,4,9,10-tetrahydro-2,9,10a-triaza-cyclopenta[b]fluorene-1,3-dione], the EC50 is reported as 39.8 to 251 nM.
For `CC1CCN(CCN2C(=O)N3[C@H](c4cccc(O)c4)c4[nH]c5cc(F)c(Cl)cc5c4C[C@@]3(C)C2=O)CC1` (racemic) [Example 357, (3aSR,10RS)-6-Chloro-7-fluoro-10-(3-hydroxy-phenyl)-3a-methyl-2-[2-(4-methyl-piperidin-1-yl)-ethyl]-3a,4,9,10-tetrahydro-2,9,10a-triaza-cyclopenta[b]fluorene-1,3-dione], the EC50 was 39.8 to 251 nM.
For `CCNCCN1C(=O)N2[C@H](c3cccc(O)c3)c3[nH]c4ccc(OC)c(F)c4c3C[C@@]2(C)C1=O` (racemic) [Example 407, (3aSR,10RS)-2-(2-Ethylamino-ethyl)-5-fluoro-10-(3-hydroxy-phenyl)-6-methoxy-3a-methyl-3a,4,9,10-tetrahydro-2,9,10a-triaza-cyclopenta[b]fluorene-1,3-dione], the EC50 was 39.8 to 251 nM.
`C[C@@]12Cc3c([nH]c4ccc(Cl)cc34)[C@@H](c3cccc(O)c3)N1C(=O)N(CCCN1CC=CC1)C2=O` (racemic) [Example 173, (3aSR,10RS)-6-Chloro-2-[3-(2,5-dihydro-pyrrol-1-yl)-propyl]-10-(3-hydroxy-phenyl)-3a-methyl-3a,4,9,10-tetrahydro-2,9,10a-triaza-cyclopenta[b]fluorene-1,3-dione] was tested, and the EC50 was at most 39.8 nM.
Work on `COc1ccc2[nH]c3c(c2c1)C[C@@]1(C)C(=O)N(CCCNC(C)(C)C)C(=O)N1[C@@H]3c1cccc(O)c1` (racemic) [Example 167, (3aSR,10RS)-2-(3-tert-Butylamino-propyl)-10-(3-hydroxy-phenyl)-6-methoxy-3a-methyl-3a,4,9,10-tetrahydro-2,9,10a-triaza-cyclopenta[b]fluorene-1,3-dione] yielded an EC50 of at most 39.8 nM.
With `CCN(CCO)CCN1C(=O)N2[C@H](c3cccc(O)c3)c3[nH]c4cc(F)c(Cl)cc4c3C[C@@]2(C)C1=O` (racemic) [Example 349, (3aSR,10RS)-6-Chloro-2-{2-[ethyl-(2-hydroxy-ethyl)-amino]-ethyl}-7-fluoro-10-(3-hydroxy-phenyl)-3a-methyl-3a,4,9,10-tetrahydro-2,9,10a-triaza-cyclopenta[b]fluorene-1,3-dione] the EC50 was 39.8 to 251 nM.
Compound `C[C@@]12Cc3c([nH]c4ccc(OC(F)F)cc34)[C@@H](c3cccc(O)c3)N1C(=O)N(CCN1CCCCC1)C2=O` (racemic) [Example 280, (3aSR,10RS)-6-(1,1-Difluoro-methoxy)-10-(3-hydroxy-phenyl)-3a-methyl-2-(2-piperidin-1-yl-ethyl)-3a,4,9,10-tetrahydro-2,9,10a-triaza-cyclopenta[b]fluorene-1,3-dione] has an EC50 of 39.8 to 251 nM.
In the case of `COc1cc2c3c([nH]c2cc1F)[C@@H](c1cccc(O)c1)N1C(=O)N(CCN2CC=CC2)C(=O)[C@]1(C)C3` (racemic) [Example 262, (3aSR,10RS)-2-[2-(2,5-Dihydro-pyrrol-1-yl)-ethyl]-7-fluoro-10-(3-hydroxy-phenyl)-6-methoxy-3a-methyl-3a,4,9,10-tetrahydro-2,9,10a-triaza-cyclopenta[b]fluorene-1,3-dione], the EC50 is reported as 39.8 to 251 nM.
With `C[C@@]12Cc3c([nH]c4cc(F)c(Cl)cc34)[C@@H](c3cccc(O)c3)N1C(=O)N(CCCN1CCCCCC1)C2=O` (racemic) [Example 483, (3aSR,10RS)-2-(3-Azepan-1-yl-propyl)-6-chloro-7-fluoro-10-(3-hydroyx-phenyl)-3a-methyl-3a,4,9,10-tetrahydro-2,9,10a-triaza-cyclopenta[b]fluorene-1,3-dione] the EC50 was 39.8 to 251 nM.
For `CCOc1ccc2[nH]c3c(c2c1)C[C@@]1(C)C(=O)N(CCCNCC2CC2)C(=O)N1[C@@H]3c1cccc(O)c1` (racemic) [Example 188, (3aSR,10RS)-2-[3-(Cyclopropylmethyl-amino)-propyl]-6-ethoxy-10-(3-hydroxy-phenyl)-3a-methyl-3a,4,9,10-tetrahydro-2,9,10a-triaza-cyclopenta[b]fluorene-1,3-dione], the EC50 was 39.8 to 251 nM.
Work on `CCN(CCOC)CCN1C(=O)N2[C@H](c3cccc(O)c3)c3[nH]c4ccc(Br)cc4c3C[C@@]2(C)C1=O` (racemic) [Example 380, (3aSR,10RS)-6-Bromo-2-{2-[ethyl-(2-methoxy-ethyl)-amino]-ethyl}-10-(3-hydroxy-phenyl)-3a-methyl-3a,4,9,10-tetrahydro-2,9,10a-triaza-cyclopenta[b]fluorene-1,3-dione] yielded an EC50 of 39.8 to 251 nM.
In the case of `COc1cc2c3c([nH]c2cc1F)[C@@H](c1cccc(O)c1)N1C(=O)N(CCCN(C)CCO)C(=O)[C@]1(C)C3` (racemic) [Example 312, (3aSR,10RS)-7-Fluoro-2-{3-[(2-hydroxy-ethyl)-methyl-amino]-propyl}-10-(3-hydroyx-phenyl)-6-methoxy-3a-methyl-3a,4,9,10-tetrahydro-2,9,10a-triaza-cyclopenta[b]fluorene-1,3-dione], the EC50 is reported as 39.8 to 251 nM.
`C[C@@]12Cc3c([nH]c4ccc(Br)cc34)[C@@H](c3cccc(O)c3)N1C(=O)N(CCN1CCCC1)C2=O` (racemic) [Example 389, (3aSR,10RS)-6-Bromo-10-(3-hydroxy-phenyl)-3a-methyl-2-(2-pyrrolidin-1-yl-ethyl)-3a,4,9,10-tetrahydro-2,9,10a-triaza-cyclopenta[b]fluorene-1,3-dione] gave an EC50 of at most 39.8 nM.
`C=CCNCCN1C(=O)N2[C@H](c3cccc(O)c3)c3[nH]c4cc(F)c(OC)cc4c3C[C@@]2(C)C1=O` (racemic) [Example 254, (3aSR,10RS)-2-(2-Allylamino-ethyl)-7-fluoro-10-(3-hydroxy-phenyl)-6-methoxy-3a-methyl-3a,4,9,10-tetrahydro-2,9,10a-triaza-cyclopenta[b]fluorene-1,3-dione] was tested, and the EC50 was 39.8 to 251 nM.
